# Measurements taken from patent US6737383B1, “Herbicidal oxadiazolidines” (priority 1999, dated 2004).
# Key:
# bedstraw = assay: Test B pre/postemergence bedstraw; format: in vivo, Galium aparine
# Summary of the method: (§1)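 Test chemicals in a non-phytotoxic solvent mixture with surfactant were sprayed preemergence onto planted seeds and postemergence onto plants 2 to 18 cm tall (1- to 4-leaf stage). After twelve to sixteen days in a greenhouse, injury was visually rated against untreated controls from 0 (no effect) to 10 (complete control).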
# blackgrass = assay: Test B pre/postemergence blackgrass; format: in vivo, Alopecurus myosuroides
# Summary of the method: as §1
# surinam grass = assay: Test B pre/postemergence surinam grass; format: in vivo, Brachiaria decumbens
# Summary of the method: as §1
# cocklebur = assay: Test B pre/postemergence cocklebur; format: in vivo, Xanthium strumarium
# Summary of the method: as §1
# corn = assay: Test B pre/postemergence corn; format: in vivo, Zea mays
# Summary of the method: as §1
# crabgrass = assay: Test B pre/postemergence crabgrass; format: in vivo, Digitaria sanguinalis
# Summary of the method: as §1
# giant foxtail = assay: Test B pre/postemergence giant foxtail; format: in vivo, Setaria faberii
# Summary of the method: as §1
# morningglory = assay: Test B pre/postemergence morningglory; format: in vivo, Ipomoea hederacea
# Summary of the method: as §1
# pigweed = assay: Test B pre/postemergence pigweed; format: in vivo, Amaranthus retroflexus
# Summary of the method: as §1
# soybean = assay: Test B pre/postemergence soybean; format: in vivo, Glycine max
# Summary of the method: as §1
# sugar beet = assay: Test B pre/postemergence sugar beet; format: in vivo, Beta vulgaris
# Summary of the method: as §1
# wild oat = assay: Test B pre/postemergence wild oat; format: in vivo, Avena fatua
# Summary of the method: as §1
# purple nutsedge = assay: Test B pre/postemergence purple nutsedge; format: in vivo, Cyperus rotundus; details: Postemergence
# Summary of the method: as §1
# rice = assay: Test B flood test rice; format: in vivo, Oryza sativa
# Summary of the method: (§2)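 Plants were grown to the 2-leaf stage before treatment with test chemical, then held in a greenhouse for twelve to sixteen days. Injury was visually rated against untreated controls on a 0–10 scale, where 0 is no effect and 10 is complete control.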
# smallflower flatsedge = assay: Test B flood test smallflower flatsedge; format: in vivo, Cyperus difformis
# Summary of the method: as §2
# duck salad = assay: Test B flood test duck salad; format: in vivo, Heteranthera limosa
# Summary of the method: as §2
# [1] = Preemergence, Rate 62 g/ha, scale of 0 to 10 where 0 is no effect and 10 is complete control
# [2] = Preemergence, Rate 250 g/ha, scale of 0 to 10 where 0 is no effect and 10 is complete control
# [3] = Preemergence, Rate 500 g/ha, scale of 0 to 10 where 0 is no effect and 10 is complete control
# [4] = Rate 62 g/ha, Postemergence, scale of 0 to 10 where 0 is no effect and 10 is complete control
# [5] = Rate 125 g/ha, Postemergence, scale 0 to 10
# [6] = Rate 125 g/ha, Preemergence, scale of 0 to 10 where 0 is no effect and 10 is complete control
# [7] = Rate 500 g/ha, Postemergence, scale 0 to 10, 0 no effect, 10 complete control
# [8] = Rate 62 g/ha, headed Pre-emergence (flood test species), scale 0 to 10 (0 no effect, 10 complete control)
# [9] = Rate 125 g/ha, Pre-emergence, flood test species, scale 0 to 10 where 0 is no effect and 10 is complete control
# [10] = Rate 250 g/ha, Pre-emergence, flood-test species, scale 0 to 10, 0 is no effect, 10 is complete control
# [11] = Rate 500 g/ha, Pre-emergence, flood test species, scale 0 to 10 (0 no effect, 10 complete control)
smiles,measurement,setting,value
Cc1ccccc1N(C(=O)n1oc(=O)n(-c2ccccc2C)c1=O)C(C)C [Compound 236],Bedstraw plant response rating,bedstraw; [1],0
same,Bedstraw plant response rating,bedstraw; [2],0
same,"Plant response rating, Bedstraw",bedstraw; [3],0
same,Bedstraw plant response rating,bedstraw; [4],0
same,Bedstraw plant response rating,bedstraw; [5],0
same,Bedstraw plant response rating,bedstraw; [6],0
same,"Plant response rating (0 to 10; 0 is no effect, 10 is complete control), Bedstraw","bedstraw; Rate 250 g/ha, Postemergence",0
same,Bedstraw plant response rating,bedstraw; [7],4
same,Blackgrass plant response rating,blackgrass; [1],0
same,Blackgrass plant response rating,blackgrass; [2],5
same,"Plant response rating, Blackgrass",blackgrass; [3],5
same,Blackgrass plant response rating,blackgrass; [4],0
same,Blackgrass plant response rating,blackgrass; [5],0
same,Blackgrass plant response rating,blackgrass; [6],2
same,"Plant response rating (0 to 10; 0 is no effect, 10 is complete control), Blackgrass","blackgrass; Rate 250 g/ha, Postemergence",0
same,Blackgrass plant response rating,blackgrass; [7],0
same,B. signalgrass plant response rating,surinam grass; [1],0
same,B. signalgrass plant response rating,"surinam grass; Preemergence, Rate 250 g/ha, scale 0 to 10, 0 is no effect, 10 is complete control",0
same,"Plant response rating, B. signalgrass",surinam grass; [3],3
same,B. signalgrass plant response rating,surinam grass; [4],0
same,B. signalgrass plant response rating,"surinam grass; Rate 125 g/ha, Postemergence, scale 0 (no effect) to 10 (complete control)",0
same,B. signalgrass plant response rating,surinam grass; [6],0
same,"Plant response rating (0 to 10; 0 is no effect, 10 is complete control), B. signalgrass","surinam grass; Rate 250 g/ha, Postemergence",0
same,B. signalgrass plant response rating,surinam grass; [7],0
same,Cocklebur plant response rating,cocklebur; [1],0
same,Cocklebur plant response rating,cocklebur; [2],0
same,"Plant response rating, Cocklebur",cocklebur; [3],0
same,Cocklebur plant response rating,cocklebur; [4],0
same,Cocklebur plant response rating,cocklebur; [5],0
same,Cocklebur plant response rating,cocklebur; [6],0
same,"Plant response rating (0 to 10; 0 is no effect, 10 is complete control), Cocklebur","cocklebur; Rate 250 g/ha, Postemergence",0
same,Cocklebur plant response rating,cocklebur; [7],0
same,Corn plant response rating,corn; [1],0
same,Corn plant response rating,corn; [2],0
same,"Plant response rating, Corn",corn; [3],0
same,Corn plant response rating,corn; [4],0
same,Corn plant response rating,corn; [5],0
same,Corn plant response rating,corn; [6],0
same,"Plant response rating (0 to 10; 0 is no effect, 10 is complete control), Corn","corn; Rate 250 g/ha, Postemergence",0
same,Corn plant response rating,corn; [7],0
same,Crabgrass plant response rating,crabgrass; [1],2
same,Crabgrass plant response rating,crabgrass; [2],5
same,"Plant response rating, Crabgrass",crabgrass; [3],5
same,Crabgrass plant response rating,crabgrass; [4],0
same,Crabgrass plant response rating,crabgrass; [5],0
same,Crabgrass plant response rating,crabgrass; [6],3
same,"Plant response rating (0 to 10; 0 is no effect, 10 is complete control), Crabgrass","crabgrass; Rate 250 g/ha, Postemergence",0
same,Crabgrass plant response rating,crabgrass; [7],0
same,Giant foxtail plant response rating,giant foxtail; [1],7
same,Giant foxtail plant response rating,giant foxtail; [2],9
same,"Plant response rating, Giant foxtail",giant foxtail; [3],10
same,Giant foxtail plant response rating,giant foxtail; [4],0
same,Giant foxtail plant response rating,giant foxtail; [5],0
same,Giant foxtail plant response rating,giant foxtail; [6],7
same,"Plant response rating (0 to 10; 0 is no effect, 10 is complete control), Giant foxtail","giant foxtail; Rate 250 g/ha, Postemergence",0
same,Giant foxtail plant response rating,giant foxtail; [7],0
same,Morningglory plant response rating,morningglory; [1],0
same,Morningglory plant response rating,morningglory; [2],0
same,"Plant response rating, Morningglory",morningglory; [3],0
same,Morningglory plant response rating,morningglory; [4],4
same,Morningglory plant response rating,morningglory; [5],4
same,Morningglory plant response rating,morningglory; [6],0
same,"Plant response rating (0 to 10; 0 is no effect, 10 is complete control), Morningglory","morningglory; Rate 250 g/ha, Postemergence",5
same,Morningglory plant response rating,morningglory; [7],6
same,Redroot pigweed plant response rating,pigweed; [1],0
same,Redroot pigweed plant response rating,pigweed; [2],0
same,"Plant response rating, Redroot pigweed",pigweed; [3],0
same,Redroot pigweed plant response rating,pigweed; [4],0
same,Redroot pigweed plant response rating,pigweed; [5],0
same,Redroot pigweed plant response rating,pigweed; [6],0
same,"Plant response rating (0 to 10; 0 is no effect, 10 is complete control), Redroot pigweed","pigweed; Rate 250 g/ha, Postemergence",0
same,Redroot pigweed plant response rating,pigweed; [7],0
same,Soybean plant response rating,soybean; [1],0
same,Soybean plant response rating,soybean; [2],0
same,"Plant response rating, Soybean",soybean; [3],0
same,Soybean plant response rating,soybean; [4],1
same,Soybean plant response rating,soybean; [5],1
same,Soybean plant response rating,soybean; [6],0
same,"Plant response rating (0 to 10; 0 is no effect, 10 is complete control), Soybean","soybean; Rate 250 g/ha, Postemergence",2
same,Soybean plant response rating,soybean; [7],3
same,Sugarbeets plant response rating,sugar beet; [1],0
same,Sugarbeets plant response rating,sugar beet; [2],0
same,"Plant response rating, Sugarbeets",sugar beet; [3],0
same,Sugarbeets plant response rating,sugar beet; [4],0
same,Sugarbeets plant response rating,sugar beet; [5],0
same,Sugarbeets plant response rating,sugar beet; [6],0
same,"Plant response rating (0 to 10; 0 is no effect, 10 is complete control), Sugarbeets","sugar beet; Rate 250 g/ha, Postemergence",0
same,Sugarbeets plant response rating,sugar beet; [7],0
same,Wild oats plant response rating,wild oat; [1],0
same,Wild oats plant response rating,wild oat; [2],0
same,"Plant response rating, Wild oats",wild oat; [3],2
same,Wild oats plant response rating,wild oat; [4],0
same,Wild oats plant response rating,wild oat; [5],0
same,Wild oats plant response rating,wild oat; [6],0
same,"Plant response rating (0 to 10; 0 is no effect, 10 is complete control), Wild oats","wild oat; Rate 250 g/ha, Postemergence",0
same,Wild oats plant response rating,wild oat; [7],0
same,Nutsedge plant response rating,"purple nutsedge; Rate 62 g/ha, scale of 0 to 10 where 0 is no effect and 10 is complete control",0
same,Nutsedge plant response rating,"purple nutsedge; Rate 125 g/ha, scale 0 to 10",0
same,"Plant response rating (0 to 10; 0 is no effect, 10 is complete control), Nutsedge",purple nutsedge; Rate 250 g/ha,0
same,Nutsedge plant response rating,"purple nutsedge; Rate 500 g/ha, scale 0 to 10, 0 no effect, 10 complete control",0
same,Rice plant response rating,rice; [8],0
same,Rice plant response rating,rice; [9],0
same,Rice plant response rating,rice; [10],0
same,Rice plant response rating,rice; [11],0
same,S. Flatsedge plant response rating,smallflower flatsedge; [8],0
same,S. Flatsedge plant response rating,smallflower flatsedge; [9],0
same,S. Flatsedge plant response rating,smallflower flatsedge; [10],0
same,S. Flatsedge plant response rating,smallflower flatsedge; [11],0
same,Ducksalad plant response rating,duck salad; [8],0
same,Ducksalad plant response rating,duck salad; [9],0
same,Ducksalad plant response rating,duck salad; [10],0
same,Ducksalad plant response rating,duck salad; [11],0
